Measured values: US12319651B2, “Crystalline forms and methods of producing crystalline forms of a compound” (priority 2019, dated 2025)

Experiments:
[1] = format: physicochemical
Protocol: The starting crystal Form was heated to 120° C. and the resulting material was analyzed by XRPD.
The XRPD results of crystalline Form E (FIG. 2) show good crystallinity. […] (FIG. 6). […] The XRPD results of crystalline Forms E+C (FIG. 3) show good crystallinity. Differential scanning calorimetry results for crystalline Forms E+C were very similar to that of Form E (FIG. 7). […] Form conversion was complete by 125° C. in the solid state.

[2] = Dynamic vapor sorption (moisture sorption/desorption); format: physicochemical; conditions: for Hygroscopicity: automated vapor sorption/desorption analysis, 5% to 95% RH
Protocol: Moisture sorption/desorption data were collected on a VTI SGA-100 Vapor Sorption Analyzer. Sorption and desorption data were collected over a range of 5% to 95% relative humidity (RH) at 10% RH intervals under an nitrogen purge. Samples were not dried prior to analysis. Equilibrium criteria used for analysis were less than 0.0100% weight change in 5 minutes, with a maximum equilibration time of 3 hours if the weight criterion was not met. Data were not corrected for the initial moisture content of the samples. NaCl and PVP were used as calibration standards.

[3] = Interconversion slurries of crystal forms; format: physicochemical; conditions: for Relationship of forms C and E: from DSC data and interconversion results, transition temperature less than ambient
From the text: Crystal forms of the compound of Formula (I) were weighed out in approximately equal amounts and combined as desired. Aliquots of saturated solutions of compound in various solvents were filtered (0.2-μm nylon filter) into vials containing solid mixtures such that undissolved solids were present. The mixture was then agitated by either loading it onto an orbit shaker or adding a cross-shaped stir bar and allowing the mixture to stir in a sealed vial at stated conditions. The solids were isolated by vacuum filtration and analyzed.
Interconversion slurries were conducted as individual pairings between the E+C mixture and Form E material and between forms C and E. The experiments were carried out in cyclohexane and acetone:water 20:80, at room temperature for 7 days. Additional slurries were set up in toluene at room temperature for 1 day and at approximately 5° C. for 2 days.
A second set of interconversion slurries was conducted in which all unique patterns were slurried together at 50° C. in cyclohexane and ethanol:water 50:50. […]

[4] = Measurement of the approximate solubility (visual dissolution in solvent aliquots); format: physicochemical; conditions: thermodynamic from solid
Protocol: Aliquots of various solvents were added to measured amounts of compound with agitation (typically sonication) at ambient or elevated temperatures until complete dissolution was achieved, as judged by visual observation.
The approximate solubility at ambient temperature must be known in order to carry out systematic crystallization experiments.

Compound: N#Cc1ccc(N2CCC[C@@H]2C(O)C(F)(F)F)cc1C(F)(F)F (stereo partly drawn) [Form E + C]
- XRPD Result after heating ([1]; heated to 120° C.): Form C
- Hygroscopicity ([2]; listed as E+C mixture): slightly hygroscopic

Compound: N#Cc1ccc(N2CCC[C@@H]2C(O)C(F)(F)F)cc1C(F)(F)F (stereo partly drawn) [Form C]
- Form stability upon heating and cooling ([1]; heating to 150° C. and cooling down to ambient temperature): remained stable
- Relative thermodynamic stability from heating study ([1]; starting crystal form heated to 120° C., XRPD): thermodynamically more stable crystal form
- Hydrate formation [2]: does not show any evidence of hydrate formation
- Stability over humidity [2]: stable over a wide range of humidity
- Water uptake ([2]; DVS, FIG. 9): negligible water uptake
- Hygroscopicity [2]: non-hygroscopic
- Most stable form in slurry of all forms ([3]; 50° C., 7 days, cyclohexane and ethanol:water 50:50): most stable form
- Thermodynamic stability among crystal forms ([3]; cyclohexane, acetone:water 20:80, toluene at ambient temperature, ethanol:water 50:50 at approximately 50° C.): most thermodynamically stable form
- Relationship of forms C and E [3]: enantiotropic

Compound: N#Cc1ccc(N2CCC[C@@H]2C(O)C(F)(F)F)cc1C(F)(F)F (stereo partly drawn) [Form E]
- Temperature at which form conversion was complete ([1]; VT-XRPD, solid state): ≤ 125 °C
- Temperature of conversion to Form C upon heating ([1]; VT-XRPD, mixture of forms E+C observed at this temperature): 115 °C
- Stability over humidity [2]: stable over a wide range of humidity
- Hygroscopicity [2]: slightly hygroscopic
- Relationship of forms C and E [3]: enantiotropic
- Most stable form in slurry ([3]; toluene at approximately 5° C.): most stable form

Compound: N#Cc1ccc(N2CCC[C@@H]2C(O)C(F)(F)F)cc1C(F)(F)F (stereo partly drawn) [Compound of Formula (I)]
- solubility ([4]; aqueous with cosolvent or surfactant or cyclodextrin, ambient, 1,4-dioxane/water 20:80 v/v): < 2 mg/mL
- solubility ([4]; aqueous with cosolvent or surfactant or cyclodextrin, ambient, 1-propanol/water 20:80 v/v): < 2 mg/mL
- solubility ([4]; aqueous with cosolvent or surfactant or cyclodextrin, ambient, 2,2,2-trifluoroethanol/water 20:80 v/v): < 2 mg/mL
- solubility ([4]; aqueous with cosolvent or surfactant or cyclodextrin, ambient, acetone/water 20:80 v/v): < 2 mg/mL
- solubility ([4]; aqueous with cosolvent or surfactant or cyclodextrin, ambient, acetone/water 50:50 v/v): 9 mg/mL
- solubility ([4]; aqueous with cosolvent or surfactant or cyclodextrin, ambient, acetonitrile/water 20:80 v/v): < 2 mg/mL
- solubility ([4]; aqueous with cosolvent or surfactant or cyclodextrin, ambient, ethanol/water 20:80 v/v): < 2 mg/mL
- solubility ([4]; aqueous with cosolvent or surfactant or cyclodextrin, ambient, hexafluoroisopropanol/water 20:80 v/v): < 2 mg/mL
- solubility ([4]; aqueous with cosolvent or surfactant or cyclodextrin, ambient, isopropanol/water 20:80 v/v): < 2 mg/mL
- solubility ([4]; aqueous with cosolvent or surfactant or cyclodextrin, ambient, methanol/water 20:80 v/v): < 2 mg/mL
- solubility ([4]; aqueous with cosolvent or surfactant or cyclodextrin, ambient, tetrahydrofuran/water 20:80 v/v): < 2 mg/mL
- solubility ([4]; organic solvent or mixture, ambient, 1,4-dioxane): > 111 mg/mL
- solubility ([4]; organic solvent or mixture, ambient, 1-butanol): 37 mg/mL
- solubility ([4]; organic solvent or mixture, ambient, 1-propanol): 55 mg/mL
- solubility ([4]; organic solvent or mixture, ambient, 2,2,2-trifluoroethanol): 51 mg/mL
- solubility ([4]; organic solvent or mixture, ambient, 2-butanone): > 107 mg/mL
- solubility ([4]; organic solvent or mixture, ambient, acetone): > 112 mg/mL
- solubility ([4]; organic solvent or mixture, ambient, acetonitrile): > 110 mg/mL
- solubility ([4]; organic solvent or mixture, ambient, chloroform): 37 mg/mL
- solubility ([4]; organic solvent or mixture, ambient, cyclohexane): < 2 mg/mL
- solubility ([4]; organic solvent or mixture, ambient, dichloromethane): 37 mg/mL
- solubility ([4]; organic solvent or mixture, ambient, diethyl ether): 58 mg/mL
- solubility ([4]; organic solvent or mixture, ambient, ethanol): > 104 mg/mL
- solubility ([4]; organic solvent or mixture, ambient, ethyl acetate): > 108 mg/mL
- solubility ([4]; organic solvent or mixture, ambient, hexafluoroisopropanol): > 106 mg/mL
- solubility ([4]; organic solvent or mixture, ambient, hexanes): < 2 mg/mL
- solubility ([4]; organic solvent or mixture, ambient, isopropanol): > 102 mg/mL
- solubility ([4]; organic solvent or mixture, ambient, isopropyl ether): 55 mg/mL
- solubility ([4]; organic solvent or mixture, ambient, methanol): > 116 mg/mL
- solubility ([4]; organic solvent or mixture, ambient, methyl isobutyl ketone): > 100 mg/mL
- solubility ([4]; organic solvent or mixture, ambient, tert-butyl methyl ether): > 111 mg/mL
- solubility ([4]; organic solvent or mixture, ambient, tetrahydrofuran): > 102 mg/mL
- solubility ([4]; organic solvent or mixture, ambient, toluene): 15 mg/mL
- solubility ([4]; ambient, water): < 2 mg/mL

Compound: N#Cc1ccc(N2CCC[C@@H]2C(O)C(F)(F)F)cc1C(F)(F)F (stereo partly drawn) [Form B]
- Temperature of likely form transformation upon heating [1]: approximately 150 °C
- Hydrate formation [2]: does not show any evidence of hydrate formation
- Stability over humidity [2]: stable over a wide range of humidity
